The source of these data is patent US20240360289A1, “EPOXY RESIN FOAM, CARBON DIOXIDE ABSORBENT, METHOD FOR PRODUCING EPOXY RESIN FOAM, MULTILAYER STRUCTURE AND METHOD FOR PRODUCING SAME” (MITSUBISHI GAS CHEMICAL COMPANY, INC., priority 2021, published 2024).

The series in a line: Maximum carbon dioxide release temperature of amine compound (DSC after CO2 absorption). The note with it: amine compound after 24 hours in air at 23° C. and 50% RH; DSC 23 to 250° C., 10° C./minute, nitrogen. The class given is physicochemical. The method, then: (Maximum Carbon Dioxide (CO2) Release Temperature of Amine Compound)
A carbon dioxide detector and a Petri dish were placed in an openable desiccator (inner dimension: 370 mm×260 mm×272 mm). Subsequently the amine compound (5 mmol) was added to the Petri dish in the desiccator and the door was immediately closed to leave the amine compound to stand in the desiccator in an air environment at 23° C. and 50% RH for 24 hours. The initial concentration of carbon dioxide was adjusted to about 400 ppm.
Then the amine compound was removed from the desiccator to give an amine compound with carbon dioxide absorbed. The maximum carbon dioxide release temperature of the amine compound with carbon dioxide absorbed was measured by subjecting the amine compound to DSC as described below. First, differential scanning calorimetry of the amine compound was performed under conditions of a temperature range of 23 to 250° C., a heating rate of 10° C./minute and a nitrogen atmosphere using a differential thermogravimeter (product name DTG-60 made by Shimadzu Corporation). The temperature at which the amount of heat absorbed due to the desorption of carbon dioxide was the maximum was calculated from the DSC curve obtained, and the temperature was determined as the maximum carbon dioxide release temperature of the amine compound.

For the compound `NCC1CCCC(CN)C1` (centres unmarked) [1,3-BAC, 1,3-bis(aminomethyl)cyclohexane], the “Maximum carbon dioxide release temperature” value was found to be 125.7 °C.

For `NCCN1CCNCC1` [AEP, N-(2-aminoethyl) piperazine], the “Maximum carbon dioxide release temperature” value worked out at 81.9 °C. The figure for `CC1(C)CC(N)CC(C)(CN)C1` (centres unmarked) [IPDA, isophoronediamine] is 114.4 °C; for `NCc1cccc(CN)c1` [MXDA, metaxylylenediamine] it is 135.5 °C; for `NC1CCC(CC2CCC(N)CC2)CC1` (centres unmarked) [PACM, 4,4′-methylenebis(cyclohexylamine), reference compound] it is 53 °C.
